# Measurements: paper PMC7377474, “Preclinical characterization of CPL302-253, a selective inhibitor of PI3Kδ, as the candidate for the inhalatory treatment and prevention of Asthma” (PLoS ONE, 2020)
# Several values for one entry are separate records, joined by “and”; a condition that tells them apart may be missing. Equal entries are not always repeated.
# Legend:
# [1] = tested on: A549 cells co-cultured with CD8 T cells; assay: A549 CD8 T cell co-culture, IL-33 expression; format: cell-based, human; details: 1 μM, 72 h
# Method: A549 cells were seeded into 48-well plate. CD8 T cells were isolated from frozen human PBMC using EasySep Human CD8 T cell Isolation Kit (StemCell Technologies) according to manufacturer’s protocol. A549 were co-cultured with CD8 T cells at 1 to 5 ratios for 72 h. In some cultures, CD8 cells were activated with Human T Cell Activation/Expansion Kit (Miltenyibiotec) according to manufacturer’s protocol. After 72h CD8 cells were removed by rinsing with PBS. Adherent A549 cells were suspended in 100 μl RIPA and IL-33 was assessed in cell lysates using IL-33 Human Uncoated ELISA Kit (Invitrogen). Due to high variability in cell activation the data were normalized (measure for each experimental condition was divided by average of measures for all experimental conditions in the experiment).
# [2] = tested on: co-culture of dermal fibroblasts and keratinocytes; assay: BioMAP profiling, KF3CT system; format: cell-based, human
# Method: BioMap Profiling study was performed by DiscovereX according to service provider’s protocol. In brief cultures or co-cultures of human primary cells were treated with sets of stimulators specific for cell subsets. […] The assays included positive and negative controls as well as vehicle control. The expression of biomarkers specific for each system was measured by ELISA and other techniques.
# [3] = biological target: T1, PIK3CA(H1047L) (Homo sapiens, UniProt P42336, H1047L); assay: KINOMEScan single concentration; format: binding; details: 1 μM
# T1 construct: purchased Discoverex (KINOMEscan service)
# T1 sequence (P42336 whole entry H1047L): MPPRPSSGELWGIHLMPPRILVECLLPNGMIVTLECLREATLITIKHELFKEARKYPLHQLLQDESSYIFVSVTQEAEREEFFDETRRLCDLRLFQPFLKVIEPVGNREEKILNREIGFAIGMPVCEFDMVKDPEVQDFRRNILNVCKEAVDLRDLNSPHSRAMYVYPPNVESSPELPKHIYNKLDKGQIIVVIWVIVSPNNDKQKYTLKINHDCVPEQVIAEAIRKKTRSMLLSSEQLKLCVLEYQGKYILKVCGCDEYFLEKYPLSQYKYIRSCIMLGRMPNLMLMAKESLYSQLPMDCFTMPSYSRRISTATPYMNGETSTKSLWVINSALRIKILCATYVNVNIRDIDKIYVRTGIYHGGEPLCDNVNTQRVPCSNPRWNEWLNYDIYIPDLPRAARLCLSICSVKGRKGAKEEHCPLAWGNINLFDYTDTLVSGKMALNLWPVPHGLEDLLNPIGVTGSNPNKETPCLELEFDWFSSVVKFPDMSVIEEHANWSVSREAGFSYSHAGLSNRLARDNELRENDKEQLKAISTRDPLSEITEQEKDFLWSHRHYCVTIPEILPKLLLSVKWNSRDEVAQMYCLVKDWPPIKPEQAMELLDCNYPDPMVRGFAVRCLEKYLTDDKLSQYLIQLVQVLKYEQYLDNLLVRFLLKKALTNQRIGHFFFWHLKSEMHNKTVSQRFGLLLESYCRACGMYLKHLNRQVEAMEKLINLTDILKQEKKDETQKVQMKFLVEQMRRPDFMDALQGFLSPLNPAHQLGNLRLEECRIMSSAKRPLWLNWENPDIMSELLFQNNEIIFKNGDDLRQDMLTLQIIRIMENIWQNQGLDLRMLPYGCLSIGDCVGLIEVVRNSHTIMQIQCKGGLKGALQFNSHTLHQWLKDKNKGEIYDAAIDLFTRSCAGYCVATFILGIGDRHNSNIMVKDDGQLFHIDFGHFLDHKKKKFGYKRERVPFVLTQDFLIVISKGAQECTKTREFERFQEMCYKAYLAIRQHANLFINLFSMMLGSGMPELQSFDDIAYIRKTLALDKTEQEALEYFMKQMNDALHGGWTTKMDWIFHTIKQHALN
# Method: (§1) The inhibitor-kinase binding affinity was assessed in KINOMEscan™ assay (Discoverex) according to service provider’s protocol. In brief, in this binding assay the studied compound in solution is incubated with DNA-tagged kinase and kinase active-site directed ligand bound to the beads. The compound competes for binding to kinase with the immobilized ligand. After incubation beads are removed from the solution and kinase bound to ligand is quantified by qPCR. The strength of compound binding is determined based on its ability to block kinase-ligand binding. 11-point 3-fold serial dilution of CPL302-253 was used in order to determine its binding constants (Kd) against different isotypes of class I PI3K. The single concentration of CPL302-253 was used in order to determine its specificity in abroad panel of 468 human kinases. The measure of compounds affinity to each kinase in the panel was the percentage of kinase activity inhibition by tested ligand in comparison to the control.
# [4] = biological target: T2, PIK3CA(E545A) (Homo sapiens, UniProt P42336, E545A); assay: KINOMEScan single concentration; format: binding; details: 1 μM
# T2 construct: purchased Discoverex (KINOMEscan service)
# Method: as §1
# [5] = biological target: T3, ABL1-nonphosphorylated (Homo sapiens, UniProt P00519); assay: KINOMEScan single concentration; format: binding; details: 1 μM
# T3 construct: purchased Discoverex (KINOMEscan service)
# T3 sequence (P00519 whole entry): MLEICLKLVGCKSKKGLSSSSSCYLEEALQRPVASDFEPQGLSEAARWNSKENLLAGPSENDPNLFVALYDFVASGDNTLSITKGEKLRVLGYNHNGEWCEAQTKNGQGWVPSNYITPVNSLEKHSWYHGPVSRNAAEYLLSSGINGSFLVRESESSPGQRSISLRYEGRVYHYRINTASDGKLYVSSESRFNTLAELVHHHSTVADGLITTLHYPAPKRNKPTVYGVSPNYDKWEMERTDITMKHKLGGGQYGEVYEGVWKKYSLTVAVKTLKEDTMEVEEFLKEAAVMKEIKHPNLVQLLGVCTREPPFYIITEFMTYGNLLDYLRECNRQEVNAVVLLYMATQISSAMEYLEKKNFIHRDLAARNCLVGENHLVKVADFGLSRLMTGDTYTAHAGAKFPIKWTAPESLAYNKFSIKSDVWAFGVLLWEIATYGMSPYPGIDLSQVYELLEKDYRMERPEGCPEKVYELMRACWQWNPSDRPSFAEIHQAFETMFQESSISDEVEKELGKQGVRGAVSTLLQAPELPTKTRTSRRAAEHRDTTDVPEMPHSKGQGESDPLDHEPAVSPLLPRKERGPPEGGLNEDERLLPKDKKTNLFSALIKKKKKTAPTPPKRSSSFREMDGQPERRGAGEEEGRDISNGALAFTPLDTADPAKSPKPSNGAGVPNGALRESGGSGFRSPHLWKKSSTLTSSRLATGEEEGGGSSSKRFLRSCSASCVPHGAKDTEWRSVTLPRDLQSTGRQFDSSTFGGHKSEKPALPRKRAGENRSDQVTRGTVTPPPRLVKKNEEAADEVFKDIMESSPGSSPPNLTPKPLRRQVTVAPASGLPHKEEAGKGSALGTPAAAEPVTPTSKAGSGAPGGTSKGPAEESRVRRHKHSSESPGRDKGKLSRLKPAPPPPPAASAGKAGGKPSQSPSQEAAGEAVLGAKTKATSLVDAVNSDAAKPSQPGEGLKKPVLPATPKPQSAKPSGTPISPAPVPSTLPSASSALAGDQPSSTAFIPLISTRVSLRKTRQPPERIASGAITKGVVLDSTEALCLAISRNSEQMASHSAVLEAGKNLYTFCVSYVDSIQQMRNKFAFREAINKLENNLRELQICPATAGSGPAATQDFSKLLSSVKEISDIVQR
# Method: as §1
# [6] = biological target: T4, PIK3CA(C420R) (Homo sapiens, UniProt P42336, C420R); assay: KINOMEScan single concentration; format: binding; details: 1 μM
# T4 construct: purchased Discoverex (KINOMEscan service)
# Method: as §1
# [7] = biological target: T5, PIK3CG (Homo sapiens, UniProt P48736); assay: KINOMEScan single concentration; format: binding; details: 1 μM
# T5 construct: purchased Discoverex (KINOMEscan service)
# Method: as §1
# [8] = biological target: T6, PIK3CA(I800L) (Homo sapiens, UniProt P42336, I800L); assay: KINOMEScan single concentration; format: binding; details: 1 μM
# T6 construct: purchased Discoverex (KINOMEscan service)
# Method: as §1
# [9] = biological target: T7, ULK2 (Homo sapiens, UniProt Q8IYT8); assay: KINOMEScan single concentration; format: binding; details: 1 μM
# T7 construct: purchased Discoverex (KINOMEscan service)
# Method: as §1
# [10] = biological target: T8, PIK3CD (Homo sapiens, UniProt O00329); assay: KINOMEScan single concentration; format: binding; details: 1 μM
# T8 construct: purchased Discoverex (KINOMEscan service)
# T8 sequence (O00329 whole entry): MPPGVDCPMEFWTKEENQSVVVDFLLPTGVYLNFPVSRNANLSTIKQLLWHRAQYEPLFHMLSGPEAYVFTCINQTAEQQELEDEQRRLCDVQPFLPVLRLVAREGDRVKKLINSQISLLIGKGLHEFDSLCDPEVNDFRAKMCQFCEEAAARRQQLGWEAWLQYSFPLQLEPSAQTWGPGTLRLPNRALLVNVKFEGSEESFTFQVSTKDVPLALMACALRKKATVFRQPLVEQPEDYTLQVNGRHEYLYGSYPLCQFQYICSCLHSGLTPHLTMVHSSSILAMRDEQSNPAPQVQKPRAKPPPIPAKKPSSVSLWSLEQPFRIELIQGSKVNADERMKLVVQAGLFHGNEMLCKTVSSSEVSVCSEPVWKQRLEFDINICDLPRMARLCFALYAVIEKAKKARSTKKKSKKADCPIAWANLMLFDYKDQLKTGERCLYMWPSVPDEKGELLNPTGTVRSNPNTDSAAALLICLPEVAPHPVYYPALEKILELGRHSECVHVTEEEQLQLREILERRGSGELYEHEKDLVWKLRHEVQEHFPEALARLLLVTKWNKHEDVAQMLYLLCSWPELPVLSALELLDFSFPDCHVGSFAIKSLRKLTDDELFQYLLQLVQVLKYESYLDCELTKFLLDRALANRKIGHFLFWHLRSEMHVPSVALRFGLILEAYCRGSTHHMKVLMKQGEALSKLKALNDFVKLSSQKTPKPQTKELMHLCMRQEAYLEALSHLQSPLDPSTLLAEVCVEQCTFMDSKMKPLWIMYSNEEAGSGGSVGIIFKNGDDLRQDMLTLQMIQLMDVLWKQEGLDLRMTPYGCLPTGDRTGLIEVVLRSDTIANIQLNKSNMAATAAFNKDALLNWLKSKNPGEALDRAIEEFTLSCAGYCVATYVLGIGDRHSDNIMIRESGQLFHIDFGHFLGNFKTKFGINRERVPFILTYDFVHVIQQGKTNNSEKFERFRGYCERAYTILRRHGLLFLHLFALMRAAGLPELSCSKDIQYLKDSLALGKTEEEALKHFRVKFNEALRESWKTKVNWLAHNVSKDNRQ
# Method: as §1
# [11] = biological target: T9, PIK3CA(H1047Y) (Homo sapiens, UniProt P42336, H1047Y); assay: KINOMEScan single concentration; format: binding; details: 1 μM
# T9 construct: purchased Discoverex (KINOMEscan service)
# Method: as §1
# [12] = biological target: T10, MEK5 (Homo sapiens, UniProt Q13163); assay: KINOMEScan single concentration; format: binding; details: 1 μM
# T10 construct: purchased Discoverex (KINOMEscan service)
# T10 sequence (Q13163 whole entry): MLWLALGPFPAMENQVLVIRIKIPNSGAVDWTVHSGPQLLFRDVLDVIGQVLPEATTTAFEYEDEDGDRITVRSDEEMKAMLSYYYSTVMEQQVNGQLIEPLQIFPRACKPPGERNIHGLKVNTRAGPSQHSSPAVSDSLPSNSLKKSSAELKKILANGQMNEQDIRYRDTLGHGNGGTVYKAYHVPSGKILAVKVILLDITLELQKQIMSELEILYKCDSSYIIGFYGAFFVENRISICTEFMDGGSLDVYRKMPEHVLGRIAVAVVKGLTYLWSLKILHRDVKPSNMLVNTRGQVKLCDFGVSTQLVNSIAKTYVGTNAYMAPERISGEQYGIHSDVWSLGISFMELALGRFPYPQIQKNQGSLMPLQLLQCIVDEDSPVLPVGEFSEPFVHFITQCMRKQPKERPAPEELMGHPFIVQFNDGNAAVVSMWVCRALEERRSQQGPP
# Method: as §1
# [13] = biological target: T11, PIK3CA(Q546K) (Homo sapiens, UniProt P42336, Q546K); assay: KINOMEScan single concentration; format: binding; details: 1 μM
# T11 construct: purchased Discoverex (KINOMEscan service)
# Method: as §1
# [14] = biological target: T12, PIK3CA(E542K) (Homo sapiens, UniProt P42336, E542K); assay: KINOMEScan single concentration; format: binding; details: 1 μM
# T12 construct: purchased Discoverex (KINOMEscan service)
# Method: as §1
# [15] = biological target: T13, PIK3CA(M1043I) (Homo sapiens, UniProt P42336, M1043I); assay: KINOMEScan single concentration; format: binding; details: 1 μM
# T13 construct: purchased Discoverex (KINOMEscan service)
# Method: as §1
# [16] = biological target: T14, PIK3CB (Homo sapiens, UniProt P42338); assay: KINOMEScan single concentration; format: binding; details: 1 μM
# T14 construct: purchased Discoverex (KINOMEscan service)
# Method: as §1
# [17] = biological target: T15, PIK3CA (Homo sapiens, UniProt P42336); assay: KINOMEScan single concentration; format: binding; details: 1 μM
# T15 construct: purchased Discoverex (KINOMEscan service)
# Method: as §1
# [18] = biological target: T16, PIK3CA(E545K) (Homo sapiens, UniProt P42336, E545K); assay: KINOMEScan single concentration; format: binding; details: 1 μM
# T16 construct: purchased Discoverex (KINOMEscan service)
# T16 sequence (P42336 whole entry E545K): as the sequence (P42336 whole entry H1047L) above, with E545K, L1047H counted along it
# Method: as §1
# [19] = tested on: GPCR, transporters, ion channels, nuclear receptors, kinases and non-kinase enzymes; assay: SafetyScan44 panel, overall; format: cell-based; details: 10 μM; negative if not exceeding 70% of the control
# Method: SafetyScan44 assay was performed by DiscoverX according to service provider’s protocol.
# [20] = tested on: CD8 T cells; assay: CD8 T cell activation, IFNγ production; format: cell-based, human; details: for IFNγ release (Fig 3C), single replicates: activated CD8 T cells, 48 h
# Method: CD8 T cells were isolated from human frozen PBMC using EasySep Human CD8 T cell Isolation Kit (StemCell Technologies) according to manufacturer’s protocol and cultured in AIM V medium (Gibco). To cell culture different concentrations of CPL302-253 were added. The cells were activated with Human T Cell Activation/Expansion Kit (Miltenyibiotec) according to manufacturer’s protocol. IFNγ production was measured after 48 h of activation in culture supernatants using IFNγ Human Uncoated ELISA Kit (Invitrogen) according to manufacturer’s protocol.
# [21] = tested on: neutrophils; assay: Neutrophil ROS production; format: cell-based, human
# Method: Neutrophils were isolated using EasySep Direct Human Neutrophil Isolation Kit (StemCell Technologies) from fresh whole blood of healthy donors according to manufacturer’s protocol. Cells were cultured in AIM V medium (Gibco). Cells were loaded for 30 min at 37°C in humidified incubator in the presence of 5% CO2 with DCFDA (2’,7’–dichlorofluorescein diacetate), a fluorescent ROS indicator. Subsequently neutrophils were treated for 15 min with CPL302-253 and dexamethasone. In the next step 20 ng/ml of human GM-CSF (StemCell Technologies) was added to prime cells. 15 min later 1 μg/ml LPS from E. coli O55:B5 (Sigma-Aldrich) was added to induce ROS generation. The ROS accumulation in the neutrophils was assessed on FACSCalibur 2 h after LPS stimulation.
structure (smiles),measurement,setting,value
CC(C)(C)N1CCN(Cc2cc3nc(-c4cncc5[nH]ccc45)cc(N4CCOCC4)n3n2)CC1 [CPL302-253],"IL-33 expression, normalized (Fig 3D), single replicates","[1]; A549 CD8 A (activated CD8), divided by average of all conditions",0.4059 and 0.7122 and 0.4707
same,IL-33 expression in co-cultures,[1]; A549 with activated CD8 cells,strong inhibition of IL-33 expression
same,concentration inducing decrease of Plasminogen Activator Inhibitor-1 expression,[2],≥ 150 nM
same,"decrease of Plasminogen Activator Inhibitor-1 expression, effect size",[2],lower than 0.2 log10
same,Remaining binding (%),[3],92%
same,Remaining binding (%),[4],45%
same,Remaining binding (%),[5],36%
same,Remaining binding (%),[6],12%
same,Remaining binding (%),[7],94%
same,Remaining binding (%),[8],44%
same,Remaining binding (%),[9],33%
same,Remaining binding (%),[10],1.1%
same,Remaining binding (%),[11],0%
same,Remaining binding (%),[12],35%
same,Remaining binding (%),[13],99%
same,Remaining binding (%),[14],82%
same,Remaining binding (%),[15],100%
same,Remaining binding (%),[16],42%
same,Remaining binding (%),[17],96%
same,Remaining binding (%),[18],54%
same,inhibition or activation of the studied pathways in SafetyScan44,[19],neither inhibits nor activates any of the studied pathways
same,concentration at which IFNγ production was blocked,[20]; CD8 T cells after TCR engagement,1 nM
same,"IFNγ release (Fig 3C), single replicates",[20]; concentration 1 (unit not given),418.61 and 469.87 and 245.35
same,"IFNγ release (Fig 3C), single replicates",[20]; concentration 10 (unit not given),400.4 and 276.31 and 203.71
same,"IFNγ release (Fig 3C), single replicates",[20]; concentration 100 (unit not given),219.02 and 101.31 and 52.94
same,"IFNγ release (Fig 3C), single replicates","[20]; concentration 10000, first column (unit not printed)",55.96 and 7.95 and 23.25
same,"IFNγ release (Fig 3C), single replicates","[20]; concentration 10000, second column (unit not printed)",155.93 and 70.92 and 72.2
same,"neutrophils stained positively by ROS fluorescent indicator (Fig 4C), single replicates","[21]; GM-CSF 20 ng/ml and LPS 1 μg/ml, 2 h",52 and 10 and 17 and 22 and 2 and 9
same,ROS accumulation in neutrophils,[21]; GMCSF/LPS stimulation,reduced ROS accumulation
